The results in this text go back to publication PMC10498667 (Chemical Science, 2023).

The target in one data set is T1, Aβ42 (Homo sapiens, UniProt P05067).
T1 construct: purchased Peptide Institute, Inc. (Osaka, Japan)
Description: Additional disaggregation experiments (preformed aggregates or seeds with Aβ monomers). In kind it is biochemical. Conditions: metal-free Aβ42 and metal–Aβ42; flavonoid 50 μM. The protocol: To probe the secondary nucleation of disassembled Aβ aggregates induced by the flavonoids on Aβ monomers, additional disaggregation experiments were conducted by incubating preformed aggregates of metal-free and metal-treated Aβ or their seeds with Aβ monomers. […] These indications describe the significance of three hydroxyl groups on the A ring in the flavonoid structure to impact the aggregation of metal-free Aβ and metal–Aβ. […]
Ab Aggregation Experiments. Ab was dissolved in ammonium hydroxide [1% w/w NH4OH (aq)] and the resulting solution was aliquoted, lyophilized overnight, and stored at –80 °C. A stock solution of Ab was then prepared by dissolving the lyophilized peptide with NH4OH (1% w/w, aq; 10 µL) and diluting with ddH2O. All Ab samples were prepared following previously reported procedures.21,22 The concentration of the peptide solution was determined by measuring its […]
solution (20 mM HEPES, pH 7.4, 150 mM NaCl) was used for preparing Ab samples. […]
For the disaggregation studies, Ab (25 µM) was incubated with and without CuCl2 or ZnCl2 (25 µM) for 24 h at 37 °C with constant agitation to generate preformed Ab aggregates. The resultant Ab aggregates were then treated with flavonoids (50 µM) and incubated for additional 24 h with constant agitation. For the additional disaggregation experiments, preformed Ab42 aggregates (25 µM) or Ab42 seeds (10% v/v) with or without metal ions (25 µM for CuCl2 and ZnCl2) were incubated with flavonoids (50 µM) for 24 h with constant agitation. The resultant Ab aggregates were then treated with freshly prepared Ab42 […]
(25 µM) and incubated for additional 24 h with constant agitation.
Gel/Western Blot. The resultant Ab species from the aggregation experiments were analyzed by gel/Western blot using an anti-Ab antibody (6E10, Covance, Princeton, NJ, USA).21,22 Each sample (10 µL) was separated on a 10–20% tricine gel (Invitrogen). Following separation, the proteins were transferred onto nitrocellulose membranes and blocked with bovine serum albumin (BSA, 3% w/v; Sigma-Aldrich) in Tris-buffered saline (TBS) containing 0.1% v/v Tween-20 (Sigma-Aldrich) (TBS-T) for 4 h at room temperature or overnight at 4 °C. The membranes were incubated with 6E10 (1:2,000) in the solution of BSA (2% w/v in TBS-T) for 4 h at room temperature. […] A homemade ECL kit21–23 was used to visualize gel/Western blots on a ChemiDoc MP Imaging System (Bio-Rad).
TEM. […]
Cu(II)-binding Studies. The interaction of flavonoids with Cu(II) was detected by Abs spectroscopy in 20 mM HEPES, pH 7.4, 150 mM NaCl. […] The mixture solution was allowed to equilibrate for 5 min after the addition of CuCl2 at room temperature before the spectra were recorded. […]

Data set [1] relates to human neuroblastoma SH-SY5Y (5Y) cells. In words: Cellular ROS detection assay (prooxidant activity). Type of data set: cell-based.
Description: Cellular ROS Detection Assay. The prooxidant activity of flavonoids in living cells was measured by a cellular ROS detection assay kit (Abcam) following the manufacturer ’s protocol. The human neuroblastoma 5Y cells were maintained in media containing 50% v/v Dulbecco's Modified Eagle Medium and 50% v/v Nutrient Mixture F12 (phenol red-free DMEM/F12; GIBCO, Grand Island, NY, USA) supplemented with 10% v/v fetal bovine serum (GIBCO) and 100 U/mL penicillin-streptomycin (GIBCO). The cells were grown and maintained at 37 °C in a humidified atmosphere with 5% CO2. Cells were seeded in a 96-well plate (50,000 cells/100 µL). After 24 h incubation, a ROS-staining working solution (100 µL) was added to each well and the plate was incubated for 1 h at 37 °C. Cells were then treated with the samples {[flavonoid] = 0.01, 0.1, 0.5, and 1 mM (1% v/v DMSO)}. The cellular ROS levels upon the treatment of samples were measured based on the fluorescence intensity (lex/lem = 520/605 nm) of the wells that was detected after 2 h incubation and calculated, relative to that of the cells containing an equivalent amount of DMSO.
All experiments were performed in triplicate.
Data set [2] can be described thus: Solubility in EtOH (TEAC conditions). In kind it is physicochemical. The following applies: under TEAC experimental conditions.

T1 sequence (P05067 672-713 limits assumed): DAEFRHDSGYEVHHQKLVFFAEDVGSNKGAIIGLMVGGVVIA

Take `O=c1c(-c2ccccc2)coc2cc(O)c(O)c(O)c12` [4b, 5,6,7-trihydroxyisoflavone]: the “MW distribution after incubating treated preformed aggregates or seeds with Aβ monomers (secondary nucleation)” value (from here on “MW distribution”) at Aβ42 is “notable variations in the MW distribution”. For the same molecule, the “cellular ROS concentration / prooxidative activity” value in data set [1] (0.01 and 0.1 mM flavonoid) is “no elevation of the cellular ROS concentration”; in data set [1] (0.5 and 1 mM flavonoid), “the prooxidative activity was observed”.

Turning to `O=c1cc(-c2ccccc2)oc2cc(O)cc(O)c12` [compound 1, chrysin], the “solubility in ethanol (EtOH)” value in data set [2] is “limited solubility”. Consider `O=c1cc(-c2ccccc2)oc2ccc(O)c(O)c12` [compound 3, 5,6-dihydroxyflavone], for which the “MW distribution” value on Aβ42 is reported as “reactivity specifically towards metal–Aβ42 species”. Turning to `O=c1cc(-c2ccccc2)oc2cc(O)c(O)c(O)c12` [compound 4, baicalein], the “MW distribution” value on Aβ42 is recorded as “notable variations in the MW distribution”. For `O=c1cc(-c2ccccc2)oc2c(Cl)c(O)c(O)c(O)c12` [compound 5, 8-chlorobaicalein], the “MW distribution” value at Aβ42 is given as “notable variations in the MW distribution”. Consider `O=c1c(-c2ccc(O)c(O)c2)coc2cc(O)c(O)c(O)c12` [compound 6, 3-(3,4-dihydroxyphenyl)-5,6,7-trihydroxy-4H-chromen-4-one], for which the “cellular ROS concentration / prooxidative activity” value in data set [1] (0.01 and 0.1 mM flavonoid) is listed as “No prooxidative activity”; in data set [1] (0.5 and 1 mM flavonoid) it was “increase in the amount of cellular ROS”.
